# In patent US20140079717A1, “Compositions and Methods to Prevent Cell Transformation and Cancer Metastasis” (CORNELL UNIVERSITY, priority 2011, published 2014):
# Assay: In vitro liposome fractionation assay
# Type: binding
# Conditions: 5 μg protein, 15 minute incubation, centrifugation, SDS-PAGE
# Description: FIG. 51. Recombinant tTG can associate with lipid vesicles lacking any protein content. Synthetic liposomes were prepared by extrusion and then equal amounts of this preparation were combined with either 5 μg recombinant tTG (tTG WT) or 5 μg bovine serum albumin (BSA). After a 15 minute incubation, the liposomes were pelleted by centrifugation, and the resulting supernatant (Sup) and liposome (Pellet) fractions were resolved by SDS-PAGE. The gel was then stained with Quick Blue to detect the proteins. A lane containing recombinant tTG (Rec. tTG WT) was included as a standard.
# To obtain the results depicted in FIG. 51, the following procedures were used. In vitro liposome fractionation assays—Synthetic liposomes were prepared from a lipid mixture containing 35% phosphatidylethanolamine, 25% phosphatidylserine, 5% phosphatidylinositol, and 35% cholesterol re-suspended in TBSM buffer (20 mM Tris, pH 7.5, 150 mM NaCl, and 2 mM MgCl2). The lipids were extruded through an 8 micron filter, pelleted by centrifugation at 13,000 rpm for 15 minutes, and re-suspended in TBSM buffer. Equal amounts of the lipid preparation were then incubated with either recombinant wild-type tTG or BSA for 15 minutes, followed by centrifugation at 13,000 rpm for 10 minutes at room temperature. […]
substance,measurement,value
bovine serum albumin [BSA],protein pelleted with synthetic liposomes,only weakly pelleted
